Tests used:
[1] = Bidirectional permeability study in Caco-2 cells; format: in vitro ADME; details: human, pH 7.4, Caco-2, 2.00 µM, A to B
Protocol: Caco-2 cells were inoculated onto […] (PET) in 96-well inserted plates at a rate of 1×10^5 cells/cm^2, and the medium was changed every 4 to 5 days until day 21 to 28, to form a fused cell monolayer. The transport buffer in the assay was HBSS and 10.0 mM HEPES, with a pH of 7.40±0.05. The test compounds were subjected to a bidirectional test at 2.00 µM in the presence and absence of GF120918 (10.0 µM). Digoxin was subjected to a bidirectional test at 10.0 µM in the presence and absence of GF120918 (10.0 µM), while Nadolol and Metoprolol were subjected to a test from direction A to direction B at 2.00 µM in the absence of GF120918 (10.0 µM). The above tests were performed in duplicate. The final concentration of DMSO was adjusted to be lower than 1%. The plate was incubated in a CO2 incubator at 37°C±1°C for 2 hours, and 5% CO2 was added under saturated humidity without shaking. All the samples, after being mixed with acetonitrile containing internal standard, were centrifuged at 3,200 g for 10 minutes. For Nadolol and Metoprolol, 200 µL of supernatant was diluted with 600 µL of distilled water for LC-MS/MS analysis. For Digoxin and test compounds, 200 µL of supernatant was diluted with 200 µL of distilled water for LC-MS/MS analysis. The concentrations of the test compounds and control compounds in the starting solution, the donor solution, and the acceptor solution were quantified by LC-MS/MS based on a peak area ratio of the analyte to the internal standard.
After the transport assay, the integrity of the Caco-2 cell monolayer was determined using Lucifer Yellow Exclusion Assay. [Table 4] Bidirectional Permeability of Compounds in Caco-2 Cells

CYP3A4 = molecular target: T1, CYP3A4 (Homo sapiens, UniProt P08684); assay: CYP inhibition assay in mixed human liver microsomes; format: in vitro ADME; details: probe midazolam, read-out: Inhibition Rate % CYP3A4 (midazolam)
T1 construct: Mixed human liver microsomes; from tissue; host or cells: mixed (pooled) human liver microsomes
Protocol: (§1) The inhibitory effects of the compounds on six enzymes, i.e., CYP1A2, CYP2C9, CYP2C19, CYP2D6, CYP3A4 (midazolam), and CYP2B6, were evaluated at a concentration of 10 µM. Mixed human liver microsomes, which were previously stored in a -80°C refrigerator before use, were taken out and thawed in a water bath at 37°C before use, and placed on ice for further operation. 100 µL of microsome working solution was taken, and added with 2 µL of compound or positive inhibitor working solution. 2 µL of solvent was added to the solvent control. The mixture was pre-incubated in a water bath at 37°C for 10 minutes. After the preincubation, 98 µL of NADPH regeneration solution was added to all samples to initiate the reaction. Then, the samples were put back into the water bath and incubated for a period of time. The reaction was quenched with 200 µL of stop solution. The plate was centrifuged at 3,220 g for 10 minutes, 100 µL of supernatant was transferred, and 100 µL of water was added and mixed well to the assay plate for LC/MS/MS analysis. [Table 2] CYP450 Inhibition Results of Compounds

CYP1A2 = molecular target: T2, CYP1A2 (Homo sapiens, UniProt P05177); assay: as above; format: in vitro ADME; details: read-out: Inhibition Rate % CYP1A2
T2 construct: Mixed human liver microsomes; from tissue; host or cells: mixed (pooled) human liver microsomes
T2 sequence (P05177 1-516): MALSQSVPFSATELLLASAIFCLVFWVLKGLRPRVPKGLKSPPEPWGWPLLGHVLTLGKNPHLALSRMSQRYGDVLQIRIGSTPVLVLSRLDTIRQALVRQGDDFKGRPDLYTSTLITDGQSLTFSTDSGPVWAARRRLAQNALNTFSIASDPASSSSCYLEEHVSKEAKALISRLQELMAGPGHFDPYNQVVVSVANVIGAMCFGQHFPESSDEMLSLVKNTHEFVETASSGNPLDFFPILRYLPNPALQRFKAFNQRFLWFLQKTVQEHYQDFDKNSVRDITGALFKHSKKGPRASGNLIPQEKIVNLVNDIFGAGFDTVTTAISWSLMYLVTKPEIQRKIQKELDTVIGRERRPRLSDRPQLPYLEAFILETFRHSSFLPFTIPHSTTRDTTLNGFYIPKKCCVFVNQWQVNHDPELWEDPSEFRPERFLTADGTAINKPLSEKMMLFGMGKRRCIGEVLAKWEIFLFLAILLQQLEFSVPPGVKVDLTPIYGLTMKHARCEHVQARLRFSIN
Protocol: as §1

CYP2C9 = molecular target: T3, CYP2C9 (Homo sapiens, UniProt P11712); assay: as above; format: in vitro ADME; details: read-out: Inhibition Rate % CYP2C9
T3 construct: Mixed human liver microsomes; from tissue; host or cells: mixed (pooled) human liver microsomes
Protocol: as §1

AT2R = molecular target: T4, AT2R (Homo sapiens, UniProt P50052); assay: Binding assay of compounds to AT2R (Tag-lite HTRF ligand binding kit)
T4 construct: purchased Cisbio #C1TT1AT2
T4 sequence (P50052 1-363): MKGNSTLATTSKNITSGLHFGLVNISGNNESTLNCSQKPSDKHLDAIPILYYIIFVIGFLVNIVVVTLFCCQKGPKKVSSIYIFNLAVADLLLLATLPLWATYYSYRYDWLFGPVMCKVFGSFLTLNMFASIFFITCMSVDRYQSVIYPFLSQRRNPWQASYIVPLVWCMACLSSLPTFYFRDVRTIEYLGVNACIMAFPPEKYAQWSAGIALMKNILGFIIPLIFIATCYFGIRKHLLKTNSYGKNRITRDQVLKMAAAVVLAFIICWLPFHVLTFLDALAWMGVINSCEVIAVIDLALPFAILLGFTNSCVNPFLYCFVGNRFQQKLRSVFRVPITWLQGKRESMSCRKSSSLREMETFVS
Protocol: The assay was performed in accordance with the manufacturer instructions of Angiotensin AT2 Receptor Ligand Binding Assay Kit (#C1TT1AT2, Cisbio). First, a 10 mM compound stock solution was diluted in a gradient at a 5× dilution ratio (including 10 concentrations, each with two replicates). 160 nL of compounds at different concentrations was added to a 384-well plate. 40 µL of 1× TLB (TLB: Tag-lite buffer) was added to each well, and the mixture was shaken at room temperature for 15 minutes. A 15 mL centrifuge tube added with 5 mL of 1×TLB was prepared in advance. The frozen labeled cells were thawed in a water bath at 37°C (for 1 to 2 minutes), and the thawed cells were quickly transferred to the above 15 mL centrifuge tube. The mixture was mixed well and centrifuged at 1,000 g at room temperature for 5 minutes. The supernatant was removed, and the cells were resuspended by adding 2.7 mL 1× TLB. A new 384-well plate was taken, and 10 µL of mixed cells were added into the corresponding wells according to the assay design. 5 µL of 4× compound solution and 5 µL of 4× Tag-lite red fluorescent labeled ligand were added to each well. After incubation at room temperature for 1 hour, data were read using EnVision with an HTRF mode. The […] at 665nM and 615nM in each well were read respectively, and the ratio was calculated (Ratio=A665nM/B615nM). The IC50 value was calculated by means of GraphPad Prism8 software, where X represents logarithmic value of compound concentration; and Y represents ratio of A665nM/B615nM.

T3 sequence (P11712 whole entry): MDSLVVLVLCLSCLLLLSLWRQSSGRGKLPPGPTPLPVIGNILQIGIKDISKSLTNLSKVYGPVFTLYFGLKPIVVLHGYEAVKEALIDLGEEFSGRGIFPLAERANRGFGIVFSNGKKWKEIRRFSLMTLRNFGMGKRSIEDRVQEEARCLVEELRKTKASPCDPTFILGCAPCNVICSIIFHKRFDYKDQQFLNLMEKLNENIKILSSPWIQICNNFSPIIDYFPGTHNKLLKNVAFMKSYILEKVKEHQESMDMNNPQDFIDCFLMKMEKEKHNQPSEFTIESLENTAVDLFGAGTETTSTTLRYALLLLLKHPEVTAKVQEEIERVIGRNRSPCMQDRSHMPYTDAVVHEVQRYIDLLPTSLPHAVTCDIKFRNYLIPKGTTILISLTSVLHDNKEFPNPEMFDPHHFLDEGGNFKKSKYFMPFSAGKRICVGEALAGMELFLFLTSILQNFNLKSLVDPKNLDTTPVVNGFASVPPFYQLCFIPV
T1 sequence (P08684 whole entry): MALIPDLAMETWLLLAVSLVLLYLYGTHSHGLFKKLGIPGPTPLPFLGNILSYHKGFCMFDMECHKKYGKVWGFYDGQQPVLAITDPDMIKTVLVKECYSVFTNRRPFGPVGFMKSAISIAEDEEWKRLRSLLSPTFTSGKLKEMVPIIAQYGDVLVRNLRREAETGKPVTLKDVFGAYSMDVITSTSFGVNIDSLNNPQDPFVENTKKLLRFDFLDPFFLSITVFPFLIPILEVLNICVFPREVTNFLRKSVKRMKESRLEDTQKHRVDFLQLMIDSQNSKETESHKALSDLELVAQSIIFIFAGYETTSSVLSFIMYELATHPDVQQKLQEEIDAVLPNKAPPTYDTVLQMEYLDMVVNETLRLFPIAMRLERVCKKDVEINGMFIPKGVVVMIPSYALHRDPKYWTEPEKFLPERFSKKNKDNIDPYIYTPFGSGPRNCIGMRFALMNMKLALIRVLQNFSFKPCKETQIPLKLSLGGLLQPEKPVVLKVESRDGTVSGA

Structure (SMILES) | Papp A→B at 2 h, 2 µM [1] [×10⁻⁶ cm/s] | inhibition at 10 µM (CYP3A4) [%] | inhibition at 10 µM (CYP1A2) [%] | inhibition at 10 µM (CYP2C9) [%] | IC50 (AT2R) [nM]
COC(=O)NS(=O)(=O)c1sc(CC(C)C)c(C)c1-c1ccc(Cn2ccnc2Cl)c(F)c1 [Compound I-14, Methyl ((3-(4-((2-chloro-1H-imidazol-1-yl)methyl)-3-fluorophenyl)-5-isobutyl-4-methylthiophen-2-yl)sulfonyl)carbamate] | 3.73 | 14 | 5.6 | 24.8 | 1.39
COC(=O)NS(=O)(=O)c1sc(CC(C)C)c(C)c1-c1ccc(Cn2ccnc2C(F)(F)F)cc1 [Compound I-9, Methyl ((5-isobutyl-4-methyl-3-(4-((2-(trifluoromethyl)-1H-imidazol-1-yl)methyl)phenyl)thiophen-2-yl)sulfonyl)carbamate] | 2.29 | 0 | 0 | 18.6 | 5.13
Cc1c(CC(C)C)sc(S(=O)(=O)Nc2ncccn2)c1-c1ccc(Cn2ccnc2Cl)cc1 [Compound I-23, 3-(4-((2-chloro-1H-imidazol-1-yl)methyl)phenyl)-5-isobutyl-4-methyl-N-(pyrimidin-2-yl)thiophene-2-sulfonamide] | 5.22 | 0 | 8.3 | 20.5 | 1.79
COC(=O)NS(=O)(=O)c1sc(CC(C)C)c(C)c1-c1ccc(Cn2ccnc2C(C)(C)O)cc1 [Compound I-19, Methyl ((3-(4-((2-(2-hydroxypropan-2-yl)-1H-imidazol-1-yl)methyl)phenyl)-5-isobutyl-4-methylthiophen-2-yl)sulfonyl)carbamate] | 3.24 | 7.6 | 0 | 0 | 2.91
Cc1c(CC(C)C)sc(S(=O)(=O)NC(=O)OCC(C)(C)O)c1-c1ccc(Cn2ccnc2C(F)(F)F)cc1 [Compound I-10, 2-hydroxy-2-methylpropyl ((5-isobutyl-4-methyl-3-(4-((2-(trifluoromethyl)-1H-imidazol-1-yl)methyl)phenyl)thiophen-2-yl)sulfonyl)carbamate] | 2.63 | 0 | 0 | 5.3 | 2.31
CCCCOC(=O)NS(=O)(=O)c1sc(CC(C)C)cc1-c1ccc(Cn2ccnc2)cc1 [Control Compound I, reference compound] | 0.381 | 92.6 | 95.4 | 100 | –
Cc1c(CC(C)C)sc(S(=O)(=O)NC(=O)OCCO)c1-c1ccc(Cn2ccnc2C(F)(F)F)cc1 [Compound I-13, 2-hydroxyethyl ((5-isobutyl-4-methyl-3-(4-((2-(trifluoromethyl)-1H-imidazol-1-yl)methyl)phenyl)thiophen-2-yl)sulfonyl)carbamate] | 1.98 | 9.6 | 3.5 | 12.2 | 2.6

Reference: patent EP4768479A1 (Hubei Bio-Pharmaceutical Industrial Technological Institute …, priority 2023, dated 2025)
